{"source": "patent US9187771B2", "about": "“Phenylpyruvate reductase and method for manufacturing optically-active phenyllactic acid and 4-hydroxyl-phenyllactic acid using same enzyme” (Asahi Kasei Chemicals Corporation, priority 2011, dated 2015)", "key": {"[1]": {"tested_on": "PPR (phenylpyruvate reductase) from Wickerhamia fluorescens TK1", "experiment": "PPR activity measurement with purified PPR enzyme (NADPH decrease at 340 nm)", "format": "biochemical", "conditions": "for reverse reaction of the PPR enzyme: combination of D-3-phenyllactate, L-3-phenyllactate, NAD+ and NADP+ as substrate; for reduction of substrate by the PPR enzyme: NADPH as coenzyme; for effect of metal ion on PPR activity: final concentration 1 mM"}, "[2]": {"tested_on": "rPPR (recombinant PPR)", "format": "biochemical, Wickerhamia fluorescens TK1", "conditions": "variable substrate; fixed substrate NADPH"}, "[3]": {"tested_on": "PPR activity of W. fluorescens TK1 strain", "format": "cell-based, Wickerhamia fluorescens TK1"}, "[4]": {"tested_on": "pprA gene", "experiment": "Real-time PCR of pprA transcript", "conditions": "5 mM phenylalanine, culture 8 hours"}, "[5]": {"tested_on": "W. fluorescens TK1 strain", "conditions": "5.0 mM added to MM culture medium, aerobic shake culture"}, "[6]": {"conditions": "final concentration of compound 1 mM, None = 100"}, "[7]": {"conditions": "variable coenzyme, fixed substrate Phenylpyruvate"}}, "note": "Like-named read-outs stand apart in the source and are kept apart here."}
{"molecule": "O=C(O)C(O)Cc1ccccc1", "note": "(stereo in doubt) [D-3-phenyllactate]", "values": [{"measurement": "reverse reaction of the PPR enzyme", "setting": "[1]", "result": "failure of an enzyme reaction to arise"}]}
{"molecule": "O=C(O)C(O)Cc1ccccc1", "note": "(stereo in doubt) [L-3-phenyllactate]", "values": [{"measurement": "reverse reaction of the PPR enzyme", "setting": "[1]", "result": "failure of an enzyme reaction to arise"}]}
{"molecule": "OCCS", "note": "[2-Mercaptoethanol]", "values": [{"measurement": "Relative activity", "setting": "[1]", "result": 64, "unit": "%"}]}
{"molecule": "O=C(O)C(=O)Cc1ccc(O)cc1", "note": "[4-hydroxyphenylpyruvate]", "values": [{"measurement": "reduction of substrate by the PPR enzyme", "setting": "[1]", "result": "reduced"}]}
{"molecule": "[Ca+2].[Cl-].[Cl-]", "note": "[CaCl2]", "values": [{"measurement": "Relative activity", "setting": "[1]; [6]", "result": 90, "unit": "%"}]}
{"molecule": "[Cl-].[Cl-].[Co+2]", "note": "[CoCl2]", "values": [{"measurement": "Relative activity", "setting": "[1]", "result": 61, "unit": "%"}]}
{"molecule": "O=S(=O)([O-])[O-].[Cu+2]", "note": "[CuSO4]", "values": [{"measurement": "effect of metal ion on PPR activity", "setting": "[1]", "result": "inhibit PPR activity"}, {"measurement": "Relative activity", "setting": "[1]; [6]", "result": 0, "unit": "%"}]}
{"molecule": "O=C(O)CN(CCN(CC(=O)O)CC(=O)O)CC(=O)O", "note": "[EDTA, ethylenediaminetetraacetate]", "values": [{"measurement": "Relative activity", "setting": "[1]; [6]", "result": 84, "unit": "%"}]}
{"molecule": "[Cl][Fe][Cl]", "note": "[FeCl2]", "values": [{"measurement": "effect of metal ion on PPR activity", "setting": "[1]", "result": "inhibit PPR activity"}, {"measurement": "Relative activity", "setting": "[1]; [6]", "result": 0, "unit": "%"}]}
{"molecule": "O=CC(=O)O", "note": "[Glyoxylate]", "values": [{"measurement": "reduction of substrate by the PPR enzyme", "setting": "[1]", "result": "reduced"}, {"measurement": "kcat", "setting": "[1]; variable substrate, fixed substrate NADPH", "result": "18.9 ± 3.4", "unit": "s⁻¹"}, {"measurement": "Km", "setting": "[1]; variable substrate, fixed substrate NADPH, pH 6.5, 25° C.", "result": "18.9 ± 5.8", "unit": "mM"}, {"measurement": "Km", "setting": "[2]", "result": "25.2 ± 3.1", "unit": "mM"}, {"measurement": "kcat", "setting": "[2]", "result": "10.4 ± 0.8", "unit": "s⁻¹"}]}
{"molecule": "[Cl][Hg][Cl]", "note": "[HgCl2]", "values": [{"measurement": "effect of metal ion on PPR activity", "setting": "[1]", "result": "inhibit PPR activity"}, {"measurement": "Relative activity", "setting": "[1]; [6]", "result": 0, "unit": "%"}]}
{"molecule": "O=C(O)C(=O)CO", "note": "[Hydroxypyruvate]", "values": [{"measurement": "kcat", "setting": "[1]", "result": "9.14 ± 0.70", "unit": "s⁻¹"}, {"measurement": "reduction of substrate by the PPR enzyme", "setting": "[1]", "result": "reduced"}, {"measurement": "Km", "setting": "[1]; pH 6.5", "result": "3.46 ± 0.83", "unit": "mM"}, {"measurement": "Km", "setting": "[2]", "result": "6.99 ± 2.74", "unit": "mM"}, {"measurement": "kcat", "setting": "[2]", "result": "6.63 ± 1.04", "unit": "s⁻¹"}]}
{"molecule": "N[C@@H](Cc1ccccc1)C(=O)O", "note": "[L-phenylalanine]", "values": [{"measurement": "PPR activity compared with culture in the GPAMM culture medium (phenylpyruvate added)", "setting": "[3]; 10 hours at 30° C.", "result": 3.0, "unit": "times"}, {"measurement": "PPR activity compared with culture in the MM culture medium", "setting": "[3]; 10 hours at 30° C.", "result": 3.6, "unit": "fold"}, {"measurement": "PPR activity of the cell free extract", "setting": "[3]; cells cultured 10 hours at 30° C. in medium with 5 mM L-phenylalanine", "result": 0.22, "unit": "µmol/min/mg"}, {"measurement": "transcription level of the pprA gene compared with GPAMM culture medium", "setting": "[4]", "result": 18, "unit": "fold"}, {"measurement": "transcription level of the pprA gene compared with MM culture medium", "setting": "[4]", "result": 40, "unit": "fold"}, {"measurement": "D-3-phenyllactate production relative to when none was added", "setting": "[5]", "result": 57.5, "unit": "fold"}, {"measurement": "quantity of cells relative to when none was added", "setting": "[5]", "result": 5.1, "unit": "fold"}, {"measurement": "D-3-phenyllactate production relative to when none was added", "setting": "[5]; listed as phenylalanine", "result": "up to 58 fold"}]}
{"molecule": "O=S(=O)([O-])[O-].[Mg+2]", "note": "[MgSO4]", "values": [{"measurement": "Relative activity", "setting": "[1]; [6]", "result": 92, "unit": "%"}]}
{"molecule": "[Cl][Mn][Cl]", "note": "[MnCl2]", "values": [{"measurement": "Relative activity", "setting": "[1]; [6]", "result": 103, "unit": "%"}]}
{"molecule": "[Na+].[Na+].[O]=[Mo](=[O])([O-])[O-]", "note": "[Na2MoO4]", "values": [{"measurement": "Relative activity", "setting": "[1]; [6]", "result": 89, "unit": "%"}]}
{"molecule": "[Na+].[Na+].[O]=[W](=[O])([O-])[O-]", "note": "[Na2WO4]", "values": [{"measurement": "effect of metal ion on PPR activity", "setting": "[1]", "result": "inhibit PPR activity"}, {"measurement": "Relative activity", "setting": "[1]; [6]", "result": 0, "unit": "%"}]}
{"molecule": "[Cl][Ni][Cl]", "note": "[NiCl2]", "values": [{"measurement": "Relative activity", "setting": "[1]; [6]", "result": 63, "unit": "%"}]}
{"molecule": "O=C(O)C(=O)Cc1ccccc1", "note": "[Phenylpyruvate, phenylpyruvate]", "values": [{"measurement": "D-3-phenyllactate production relative to when none was added", "setting": "[5]", "result": 8.9, "unit": "fold"}, {"measurement": "quantity of cells relative to when none was added", "setting": "[5]", "result": 1.5, "unit": "fold"}]}
{"molecule": "CCCCCCCC/C=C\\CCCCCCCC(=O)OCCOCC(OCCO)C1OCC(OCCO)C1OCCO", "note": "(stereo not drawn) [Tween 80]", "values": [{"measurement": "Relative activity", "setting": "[1]; final concentration 0.5%, None = 100", "result": 52, "unit": "%"}]}
{"molecule": "O=S(=O)([O-])[O-].[Zn+2]", "note": "[ZnSO4]", "values": [{"measurement": "effect of metal ion on PPR activity", "setting": "[1]", "result": "inhibit PPR activity"}, {"measurement": "Relative activity", "setting": "[1]; [6]", "result": 9, "unit": "%"}]}
{"molecule": "NADH", "values": [{"measurement": "kcat/Km with NADH relative to that with NADPH as coenzyme", "setting": "[1]; fixed substrate phenylpyruvate", "result": "1/31"}, {"measurement": "Km", "setting": "[1]; [7]", "result": "0.1 ± 0.04", "unit": "mM"}, {"measurement": "kcat", "setting": "[1]; [7]", "result": "31.4 ± 7.1", "unit": "s⁻¹"}]}
{"molecule": "NADPH", "values": [{"measurement": "Km", "setting": "[1]; [7]", "result": 0.01, "unit": "mM"}, {"measurement": "kcat", "setting": "[1]; [7]", "result": "121 ± 2", "unit": "s⁻¹"}]}
{"molecule": "TritonX-100", "values": [{"measurement": "Relative activity", "setting": "[1]", "result": 82, "unit": "%"}]}
